Counter-ions that a name gives are not always drawn. Like-named read-outs stand apart in the source and are kept apart here.
What was measured:
RABV VLP = experiment: microbe, parasite or virus in culture; type: cell-based, rabies virus; settings: Lyssavirus rabies, HeLa Kyoto, 24 h, read-out: IC50 RABV
H5N1 VLP = experiment: microbe, parasite or virus in culture; type: cell-based, influenza H5N1; settings: Influenza A virus, H5N1, HeLa Kyoto, 48 h, read-out: IC50 H5N1
DENV-3 = experiment: microbe, parasite or virus in culture; type: cell-based, dengue virus; settings: Dengue virus, DENV3, Huh-7, read-out: IC50 DENV-3
DENV-2 = DENV-2 infection assay / secondary screen (E protein staining); type: cell-based, dengue virus serotype 2; settings: Dengue virus, DENV2, Huh-7, 24 h
in vitro [1] = settings: human, % viability (SFV screen)
HSV-1 = experiment: microbe, parasite or virus in culture; type: cell-based, herpes simplex virus 1; settings: virus, Vero cells, 8 h
HCV = experiment: microbe, parasite or virus in culture; type: cell-based, hepatitis C virus; settings: Hepatitis C virus, Huh7.5, read-out: IC50 HCV
DENV-1 = experiment: microbe, parasite or virus in culture; type: cell-based, dengue virus; settings: Dengue virus, DENV1, Huh-7, read-out: IC50 DENV-1
[2] = mouse, in vivo; cited from earlier work
VSV VLP = experiment: microbe, parasite or virus in culture; type: cell-based, vesicular stomatitis virus; settings: Vesicular stomatitis virus, HeLa Kyoto, 24 h, read-out: IC50 VSV
VSV_Blam_VLP fusion = experiment: microbe, parasite or virus in culture; type: cell-based; settings: Vesicular stomatitis virus, HeLa Kyoto, read-out: Inhibition of VSV_Blam_VLP fusion compared to DMSO controls
in vitro [3] = settings: human
YF17D = experiment: organism not typed; type: cell-based, yellow fever 17D; settings: Huh-7, read-out: IC50 YF17D
ZIKV [4] = settings: AG129 mice
EBOV VLP = experiment: microbe, parasite or virus in culture; type: cell-based, Ebola virus; settings: Zaire ebolavirus, HeLa Kyoto, 48 h, read-out: IC50 EBOV
SINV = experiment: microbe, parasite or virus in culture; type: cell-based, Sindbis virus; settings: Sindbis virus, HeLa Kyoto, read-out: IC50 SINV
VACV = experiment: microbe, parasite or virus in culture; type: cell-based, vaccinia virus
Huh7 cells = settings: human
SFV [5] = experiment: microbe, parasite or virus in culture; type: cell-based, Semliki Forest virus; settings: Semliki Forest virus
HIV-1 = experiment: microbe, parasite or virus in culture; type: cell-based, human immunodeficiency virus type 1; settings: virus, HeLa TZM-bl, 24 h
SFV E1 trimer formation = settings: HeLa Kyoto, MOI 100; Chloroquine 100 μM
SFV [6] = type: cell-based, Semliki Forest virus
HeLa Kyoto cells = settings: human, 7 h
ZIKV [7] = experiment: microbe, parasite or virus in culture; type: cell-based, Zika virus; settings: Zika virus, Huh-7, read-out: IC50 ZIKV

In the case of `CC[C@@]1([C@@H]2O[C@@H]([C@H]3O[C@@](O)(CO)[C@H](C)C[C@@H]3C)C[C@@H]2C)CC[C@H]([C@]2(C)CC[C@]3(C[C@H](O)[C@@H](C)[C@@H]([C@@H](C)[C@@H](OC)[C@H](C)C(=O)O)O3)O2)O1` [Monensin, Monensin sodium salt], the IC50 (RABV VLP) is reported as 800 nM, the IC50 (H5N1 VLP) is reported as 900 nM and the IC50 (DENV-3) is reported as about 3.6 µM. For the same compound, the inhibition at 10 µM (DENV-2; read-out: % inhibition (DENV-2 screen)) was 100%, the IC50 (DENV-2; read-out: IC50 DENV-2 (7 + 17 h)) was 4.5 µM and the IC50 (DENV-2; read-out: IC50 DENV-2 (24 h)) was 3.8 µM. The viability at 10 µM (in vitro [1]) was 108%, the “IC50 HSV (Vero)” value (HSV-1) was “No inhibition” and the IC50 (HCV) was 2500 nM. The IC50 (DENV-1) was 6.2 µM, the Well tolerated dose [2] was “up to 70 mg/kg” and the IC50 (VSV VLP) was 700 nM. For the same compound, the inhibition at 10 µM (VSV_Blam_VLP fusion) was over 50%, the viability at 10 µM (in vitro [3]) was 81% and the IC50 (YF17D) was under 300 nM. The “Infectious virus in the blood at day 7 p.i.” value (ZIKV [4]; immunofocus assay) was “cleared infectious virus from the blood by day 7”, the “ZIKV blood titres at day 1 p.i.” value (ZIKV [4]; qRT-PCR and immunofocus assay, vs untreated) was “significantly reduced blood titres” and the IC50 (EBOV VLP) was 4.5 µM. The IC50 (SINV) was 400 nM, the “IC50 VACV” value (VACV) was “No inhibition” and the “TC50 DENV-2 (7 + 17 h)” value (Huh7 cells) was over 50 µM. The “TC50 DENV-2 (24 h)” value (Huh7 cells; 24 h) was over 50 µM, the IC50 (SFV [5]; HeLa Kyoto, read-out: IC50 SFV (7 h)) was 1100 nM and the inhibition at 10 µM (SFV [5]; M-HeLa, 7 h, read-out: % inhibition (SFV screen)) was 81.4%. The “IC50 HIV” value (HIV-1) was “No inhibition”, the “SFV E1 trimer formation” value (SFV E1 trimer formation) was “prevented trimer formation” and the “Activity when added before SFV or 30 and 60 min after internalisation” value (SFV [6]) was “progressive and more dramatic decrease in activity”. The “TC50 SFV (7 h)” value (HeLa Kyoto cells) was over 50 µM, the “TC50 SFV (7h)” value (HeLa Kyoto cells) was over 50 mM and the IC50 (ZIKV [7]) was 5.5 µM.
